Patent US20220073496A1, “NOVEL QUINOLINE DERIVATIVE INHIBITOR” (Nanjing Transthera Biosciences Co., Ltd., priority 2018, published 2022)
Read-outs that look alike come from different tables or passages of the source.

What was measured:
[1] = Stability in liver microsome of dogs; format: in vitro ADME; conditions: Dog liver microsome 0.5 mg protein/mL, compound 1 μM, 37° C.; for half-life at 1 μM / microsomal CLint at 1 μM: liver microsomes
Procedure: Assay 1: Stability assessment of the compounds of the present invention in liver microsome of mice and dogs
Test substances: the compounds of the present invention, wherein the structures and preparations thereof were as described above.
The composition of the incubation system:
Preparation of Test Substances:
An appropriate amount of the compound was accurately weighed and dissolved in DMSO to prepare a 5.0 mM stock solution. The 5.0 mM stock solution was diluted to 1.0 mM with DMSO, and finally diluted with water to a 10 μM test substance working solution for use (the DMSO content in the reaction system was 0.1%).
(1) The liver microsome (20 mg protein/mL) was taken out from the −80° C. refrigerator, pre-incubated at 37° C. with a water-bathing constant temperature vibrator for 3 minutes, and melted for use.
(2) A mixed solution of the incubation system (excluding compounds and β-NADPH) according to the above “composition of the incubation system” for the assay was prepared, and pre-incubated at 37° C. with a water-bathing constant temperature vibrator for 2 minutes.
(3) Control group (excluding β-NADPH): 30 μL of water and 30 μL of compound working solution (10 μM) were added to 240 μL of the mixed solution of the incubation system of step (2), and vortexed for 30 seconds to mix well. The total reaction volume was 300 μL. A duplicate sample was prepared. The sample was incubated at 37° C. with a water-bathing constant temperature vibrator. The timekeeping began and the sampling time points were set at 0 minute and 60 minutes.
(4) Sample group: 70 μL of β-NADPH solution (10 mM) and 70 μL of compound working solution (10 μM) were added to 560 μL of the mixed solution of step (2). The total reaction volume was 700 μL. The resulting mixture was vortexed for 30 seconds to mix well. A duplicate sample was prepared. The sample was incubated at 37° C. with a water-bathing constant temperature vibrator. The timekeeping began and the sampling time points were set at 0 minute, 5 minutes, 10 minutes, 20 minutes, 30 minutes, and 60 minutes after timekeeping.
(5) After vortexing for 3 minutes, the sample was centrifuged at 4000 rpm for 10 minutes.
(6) 50 μL of the supernatant was taken and 150 μL of water was added. The resulting mixture was vortexed to mix well, and analyzed by LC/MS/MS.
The half-life (t1/2) and clearance rate (Cl) were calculated using the following first-order kinetic formula:
Vd=1/protein content in liver microsome
Note: k was the slope of the logarithm of the remaining amount of the compound versus time, and Vd was the apparent distribution volume.

Rat PK evaluation = format: in vivo; conditions: SD rats; for Vz_obs iv (apparent distribution volume) / bioavailability / AUC(0-t) / clearance / half-life: n = 3; for bioavailability / AUC(0-t) / clearance / half-life / Tmax: rat, plasma; for bioavailability: read-out: F % (absolute bioavailability); for clearance: read-out: Cl_obs iv (clearance rate) (converted); for Tmax: n = 3, median, read-out: Tmax po (time to peak plasma concentration)
Procedure: Assay 2: Rat PK Evaluation for the Compounds of the Present Invention
Animal Administration and Sample Collection:
(§1) The test compounds 14, 15, 16, 20, 29, 30, 31, 32, 33, 34, 36, 37, 47 and 48 were dissolved in 5% DMSO+20% (30% solutol)+75% saline to prepare the compound solutions. Each of the compound solutions was intragastrically administered to SD rats at a dose of 5.0 mg/kg. The time points of blood collection were: 15 minutes, 30 minutes, 1 hour, 2 hours, 4 hours, 6 hours, 8 hours, 24 hours, 30 hours, and 48 hours.
The test compounds 38, 39, 40 and 41 were dissolved in 5% NMP+5% Tween-80+90% saline to prepare the compound solutions. Each of the compound solutions was intragastrically administered to SD rats at a dose of 5.0 mg/kg. The time points of blood collection were: 15 minutes, 30 minutes, 1 hour, 2 hours. 4 hours, 6 hours, 8 hours, 24 hours, 30 hours, and 48 hours.
as §1, with “was” for “was intragastrically”, “administered by intravenous bolus injection” for “administered”, “1” for “5.0”, “were: 5 minutes,” for “were:”, “hours,” for “hours, 30 hours,”
The test compounds 38, 39, 40 and 41 were dissolved in 5% NMP+5% Tween-80+90% saline to prepare the compound solutions. Each of the compound solutions was administered by intravenous bolus injection to SD rats at a dose of 1 mg/kg. The time points of blood collection were: 5 minutes, 15 minutes, 30 minutes, 1 hour, 2 hours, 4 hours, 6 hours, 8 hours, 24 hours, and 48 hours.
The animal was fixed. The tail was heated in a water bath pot 10 minutes before each time point. About 100 μL of blood was collected through the tail vein. The blood was collected and placed in an anti-coagulation tube containing EDTA-K2. The blood sample was centrifuged at 8000 rpm for 6 minutes at 4° C. to obtain a plasma sample. The plasma was prepared within 30 minutes after the blood collection. The plasma was stored in a −80° C. refrigerator before testing.
The sample to be tested was taken out from the −80° C. refrigerator, naturally melted at room temperature and vortexed for 5 minutes. 20 μL of plasma sample was accurately pipetted into a 1.5 mL centrifuge tube. 200 μL of an internal standard working solution (a solution of tolbutamide in methanol) having a concentration of 100 ng/mL was added and mixed well. The mixture was vortexed for 5 minutes, and centrifuged at 12000 rpm for 5 minutes. 50 μL of the supernatant was accurately pipetted into a 96-well plate pre-filled with 150 μL/well of water. The plate was vortexed for 5 minutes and mixed well, and then the LC-MS/MS determination and analysis were performed.
The concentration of the test substance was output using Analyst 1.6.3 from AB Company. Parameters such as mean, standard deviation, and coefficient of variation were calculated with Microsoft Excel (direct outputs from Analyst 1.6.3 were not calculated), and the PK parameters were calculated using Pharsight Phoenix 6.1 software NCA (Tmax was the median).

[2] = IV 1 mg/kg, read-out: AUClast iv (area under the drug-time curve from 0 to 48 hours)
[3] = IV 1 mg/kg, read-out: tz1/2 iv (terminal elimination half-life) (converted)
[4] = PO 5 mg/kg, read-out: AUClast po (area under the drug-time curve from 0 to 48 hours)
[5] = PO 5 mg/kg, read-out: tz1/2 po (terminal elimination half-life) (converted)

t1/2 [1] | Vz_obs iv (apparent distribution volume) (Rat PK evaluation; IV 1 mg/kg) [L/kg] | bioavailability (Rat PK evaluation; IV 1 mg/kg, PO 5 mg/kg) [%] | AUC(0-t) (Rat PK evaluation; [2]) [ng·h/mL] | clearance (Rat PK evaluation; IV 1 mg/kg) [mL/min/kg] | half-life (Rat PK evaluation; [3]) [h] | Tmax (Rat PK evaluation; PO 5 mg/kg) [h] | AUC(0-t) (Rat PK evaluation; [4]) [ng·h/mL] | half-life (Rat PK evaluation; [5]) [h] | half-life at 1 μM [1] [h] | microsomal CLint at 1 μM [1] [µL/min/mg] | SMILES
→∞ | 1.84 | 63.4 | 7270 | 2.33 | 9.18 | 4 | 23000 | 8.68 |  |  | COc1cc2nccc(Oc3ncc(NC(=O)c4cn(C(C)C)nc(-c5ccc(F)cc5)c4=O)cn3)c2cc1OC [Compound 40, N-(2-((6,7-dimethoxyquinolin-4-yl)oxy)pyrimidine-5-yl)-6-(4-fluorophenyl)-2-isopropyl-5-oxo-2,5-dihydropyridazine-4-carboxamide]
→∞ | 1.21 | 90.2 | 6920 | 2.5 | 5.89 | 2 | 32400 | 5.67 |  |  | COc1cc2nccc(Oc3cnc(NC(=O)c4cn(C(C)C)nc(-c5ccc(F)cc5)c4=O)nc3)c2cc1OC [Compound 39, N-(5-((6,7-dimethoxyquinolin-4-yl)oxy)pyrimidine-2-yl)-6-(4-fluorophenyl)-2-isopropyl-5-oxo-2,5-dihydropyridazine-4-carboxamide]
 | 6.81 | 103 | 2750 | 5.83 | 14.1 | 4 | 14400 | 13.7 |  |  | COc1cc2nccc(Oc3ccc(NC(=O)c4cn(C(C)C)nc(-c5ccc(F)cc5)c4=O)nc3)c2cc1OC [Compound 41, N-(5-((6,7-dimethoxyquinolin-4-yl)oxy)pyridin-2-yl)-6-(4-fluorophenyl)-2-isopropyl-5-oxo-2,5-dihydropyridazine-4-carboxamide]
→∞ |  |  |  |  |  |  |  |  |  |  | COc1cc2nccc(Oc3ccc(NC(=O)c4cn(C5CC5)nc(-c5ccc(F)cc5)c4=O)nc3)c2cc1OC [Compound 42, 2-cyclopropyl-N-(5--((6,7-dimethoxyquinolin-4-yl)oxy)pyridin-2-yl)-6-(4-fluorophenyl)-5-oxo-2,5-dihydropyridazine-4-carboxamide]
 |  |  |  |  |  |  |  |  | 9.63 | 2.4 | COc1cc2nccc(Oc3cnc(NC(=O)c4cn(C5CC5)nc(-c5ccc(F)cc5)c4=O)nc3)c2cc1OC [Compound 45, 2-cyclopropyl-N-(5-((6,7-dimethoxyquinolin-4-yl)oxy)pyrimidine-2-yl)-6-(4-fluorophenyl)-5-oxo-2,5-dihydropyridazine-4-carboxamide]
 | 1.23 | 78.9 | 18100 | 0.783 | 18.5 |  | 67400 | 20.5 | 3.73 | 6.2 | COc1cc2nccc(Oc3ccc(NC(=O)c4nn(C(C)C)cc(-c5ccc(F)cc5)c4=O)nc3)c2cc1OC [Compound 15, N-(5-((6,7-dimethoxyquinolin-4-yl)oxy)pyridin-2-yl)-5-(4-fluorophenyl)-1-isopropyl-4-oxo-1,4-dihydropyridazine-3-carboxamide]
 | 0.18 | 53.3 | 29100 | 0.667 | 3.1 | 6 | 77900 | 5.4 | 6.08 | 3.8 | COc1cc2nccc(Oc3cnc(NC(=O)c4cn(C(C)C)cc(-c5ccc(F)cc5)c4=O)nc3)c2cc1OC [Compound 20, N-(5-((6,7-dimethoxyquinolin-4-y)oxy)pyrimidine-2-yl)-5-(4-fluorophenyl)-1-isopropyl-4-oxo-1,4-dihydropyridin-3-carboxamide]
 | 3.32 | 81.6 | 6000 | 2.5 | 15.2 | 4 | 25500 | 12.1 |  |  | COc1cc2nccc(Oc3ccc(NC(=O)c4cn(C(C)C)nc(-c5ccc(F)cc5)c4=O)cn3)c2cc1OC [Compound 38, N-(6-((6,7-dimethoxyquinolin-4-yl)oxy)pyridin-3-yl)-6-para-fluorophenyl-2-isopropyl-5-oxo-2,5-dihydropyridazine-4-carboxamide]
 |  |  |  |  |  |  |  |  | 0.208 | 111 | COc1cc2nccc(Oc3ccc(NC(=O)c4nn(C5CC5)cc(-c5ccc(C)cc5)c4=O)nc3)c2cc1OC [Compound 46, 1-cyclopropyl-N-(5-((6,7-dimethoxyquinolin-4-yl)oxy)pyridin-2-yl)-4-oxo-5-p-tolyl-1,4-dihydropyridazine-3-carboxamide]
 |  |  |  |  |  |  |  |  | 0.21 | 110 | COc1cc2nccc(Oc3ccc(NC(=O)c4cn(C(C)C)cc(-c5ccc(C)cc5)c4=O)nc3)c2cc1OC [Compound 1, N-(5-((6,7-dimethoxyquinolin-4-yl)oxy)pyridin-2-yl)-1-isopropyl-4-oxo-5-p-tolyl-1,4-dihydropyridin-3-carboxamide]
 |  |  |  |  |  |  |  |  | 2.4 | 9.6 | COc1cc2nccc(Oc3ccc(NC(=O)c4cn(C5CC5)nc(-c5ccc(F)cc5)c4=O)cn3)c2cc1OC [Compound 43, 2-cyclopropyl-N-(6-((6,7-dimethoxyquinolin-4-yl)oxy)pyridin-3-yl)-6-para-fluorophenyl-5-oxo-2,5-dihydropyridazine-4-carboxamide]
